Data on 23 compounds can be found in ChEMBL document CHEMBL1122804, “Synthesis of imidazo[1,2-a]pyrazine derivatives with uterine-relaxing, antibronchospastic, and cardiac-stimulating properties” (1984).

Format in all cases: functional
The species named for assay [1] is Rattus norvegicus. Description: Inhibition of the uterine smooth muscle contraction induced by histamine on the isolated rat uterus. Conditions: read-out: ED50.
The species entered for assay [2] is Cavia porcellus. As to the kind of experiment: Inhibition of the bronchospasm induced by histamine in guinea pig at the high concentration/dose.
For assay [3], the species on record is Cavia porcellus. As to the kind of experiment: Inhibition of the bronchospasm induced by histamine in guinea pigat the high concentration / dose.
Assay [4] is filed under the species Rattus norvegicus. As to the kind of experiment: Inhibition of the uterine smooth muscle contraction induced by histamine on the isolated rat uterus. Particulars: read-out: ED50 (the source's name).
Assay [5] is filed under the species Rattus norvegicus. As to the kind of experiment: Inhibition of the uterine smooth muscle contraction induced by histamine on the isolated rat uterus at high dose. Conditions: read-out: ED50 (the source's name).
The species named for assay [6] is Rattus norvegicus. Description: Inhibition of the uterine smooth muscle contraction induced by histamine on the isolated rat uterus at high dose. Conditions: read-out: ED50 (the source's name).
The species entered for assay [7] is Rattus norvegicus. Description: Inhibition of the uterine smooth muscle contraction induced by histamine on the isolated rat uterus at high dose /concentration. Particulars: read-out: ED50 (the source's name).

Turning to `CCOC(=O)c1[nH]c2nccnc2c1C`, the EC50 in the assay filed under Rattus norvegicus [1] stood at 102 µM.

Regarding `Brc1cncc2nccn12`, in the assay listed under Rattus norvegicus [1], the EC50 was found to be 290 µM.

`CCOC(=O)c1cn2cc(Br)nc(Br)c2n1` yielded an ED50 in the assay filed under Cavia porcellus [2] of over 0.016 µM. For the same compound, the EC50 in the assay listed under Rattus norvegicus [1] was found to be 150 µM.

As to `Brc1cn2ccnc2c(Br)n1`, the EC50 in the assay filed under Rattus norvegicus [1] was 240 µM.

On to `N#Cc1cn2ccncc2n1`, for which the EC50 in the assay listed under Rattus norvegicus [1] came to 2380 µM.

For the compound `NC(=O)c1cn2ccncc2n1`, the EC50 in the assay filed under Rattus norvegicus [1] was found to be 1500 µM.

For the compound `CCOC(=O)c1c(C)nc2cnccn12`, the EC50 in the assay filed under Rattus norvegicus [1] is 152 µM.

Take `ClCc1cn2ccncc2n1`: in the assay filed under Cavia porcellus [3], the ED50 is over 0.072 µM. The EC50 in the assay listed under Rattus norvegicus [1] stood at 1400 µM.

In the case of `N#Cc1cn2c(Br)cncc2n1`, the EC50 in the assay listed under Rattus norvegicus [1] came out at 780 µM.

For the compound `NC(=O)c1cn2c(Br)cncc2n1`, in the assay listed under Rattus norvegicus [1], the EC50 is 410 µM.

For `c1cn2ccnc2cn1`, the EC50 in the assay listed under Rattus norvegicus [4] came to 0.0016 µM.

As for `CCOC(=O)Cc1cn2cc(Br)nc(Br)c2n1`, in the assay listed under Rattus norvegicus [1], the EC50 was determined as 96 µM.

For `CC(=O)c1c(Cl)nc2cnccn12`, in the assay filed under Rattus norvegicus [1], the EC50 came to 880 µM.

On to `CCOC(=O)c1cn2ccncc2n1`, for which, in the assay listed under Rattus norvegicus [1], the EC50 came out at 1110 µM.

Turning to `Cc1cn2ccncc2n1`, the EC50 in the assay filed under Rattus norvegicus [1] was 750 µM.

Turning to `COC(=O)c1cn2ccncc2n1`, in the assay filed under Rattus norvegicus [5], the EC50 was over 0.0024 µM.

Regarding `CCOC(=O)c1cn2c(Br)cncc2n1`, in the assay filed under Rattus norvegicus [1], the EC50 was found to be 1020 µM.

As to `O=C(O)c1cn2ccncc2n1`, the EC50 in the assay listed under Rattus norvegicus [1] was found to be 1720 µM.

`Nc1nc2cnccn2c1Br`: the EC50 in the assay listed under Rattus norvegicus [6] was 0.34 nM.

As for `N#Cc1cn2cc(Br)nc(Br)c2n1`, in the assay listed under Rattus norvegicus [6], the EC50 came to 0.09 nM.

`NC(=O)c1cn2cc(Br)nc(Br)c2n1`: in the assay filed under Rattus norvegicus [7], the EC50 worked out at 0.00033 µM.

On to `OCc1cn2ccncc2n1`, for which the EC50 in the assay filed under Rattus norvegicus [1] is 2700 µM.

On to `Cn1c(=O)c2nc[nH]c2n(C)c1=O` [THEOPHYLLINE], for which the EC50 in the assay listed under Rattus norvegicus [1] was found to be 900 µM.
